Key:
Format in all cases: in vivo, mouse (male Balb/c)
[1] = test system: ornithine decarboxylase (ODC) activity of extra-orbital lacrimal gland; assay: Ornithine decarboxylase activity of extra-orbital lacrimal gland after subcutaneous bolus administration; details: mice, ODC activity 6 hours after administration
Procedure: Male Balb/c mice were used in the test. […] Also, the growth acceleration action was measured 6 hours after the administration. […] Also, the growth acceleration action was measured 6 hours after the administration. […] Thus, it can be easily analogized that the ODC activity becomes a useful index of cell growth and function of the exocrine gland. Accordingly, the ability of each drug to activate glandular tissue was evaluated by measuring ODC activity of parotid salivary gland and extra-orbital lacrimal gland. The amount of ^14CO2 formed from L-^14C-ornithine was used as the index of ODC activity. A mouse anesthetized with diethyl ether was sacrificed by bleeding, and left and right parotid salivary glands and extra-orbital lacrimal glands were isolated. After removing the attached connective tissue and fat, the isolated glandular tissues homogenized in 1.5 ml of a homogenate buffer (25 mM Tris-HCl buffer (pH 7.4) containing 0.1 mM ethylenediaminetetraacetic acid, 0.4 mM pyridoxal phosphate, 5 mM dithiothreitol and 0.1% Brij 35®) using a Potter type homogenizer and then centrifuged at 4° C., 15,000 g for 30 minutes, and the supernatant was used as the enzyme fraction. […] The ^14CO2 generated by the reaction was captured by 150 μl of 1 N NaOH soaked in a glass filter. Radioactivity of the ^14CO2 captured on the glass filter was detected using a liquid scintillation counter. The enzyme activity (pmol ^14CO2/mg protein/hour) was calculated from the measured results. All of the test results were expressed as fold increases of the reactions of the drug-administered group versus those of the vehicle-administered group, and comparison between the drug-administered groups and the vehicle-administered group was carried out using Dunnett's t-test. P<0.05 was considered significant. Results

salivary gland [2] = assay: Salivary fluid secretion after subcutaneous bolus administration; details: mice
Procedure: (§1) Male Balb/c mice were used in the test.
(§2) The compound A was dissolved in physiological saline to a concentration of 1, 3, 10, 30 or 100 mg/5 ml, and 5 ml/kg of the drug solution was administered under the dorsal skin. Secreted amounts of salivary and tear fluid were measured just before the administration of compound A and 10, 20, 30, 40 and 50 minutes after the administration. The sweating action was measured 10 minutes after the administration. Also, the growth acceleration action was measured 6 hours after the administration.
as §2, with “Pilocarpine was dissolved” for “The compound A was dissolved”, “concentration of 0.03, 0.1, 0.3, 1, 3 or 10 mg/5 ml, or cevimeline to a concentration of 0.3, 1, 3,” for “concentration of 1, 3,”, “administration of pilocarpine or cevimeline and 10,” for “administration of compound A and 10,”
(§3) The mouth of a mouse was wiped with a cotton ball whose weight had been measured in advance, and the incremental weight was used as the amount of salivary fluid. Also at the same time, a thread for tear fluid measurement (Zone Quick; Menicon) used on the Schirmer test was inserted into the lower eyelid conjunctival sac, and the length of colored part was measured and used as the amount of tear fluid. From the measurement results, area under the secreted amount-versus-time curve (AUC) was calculated.
(§4) All of the test results were expressed as fold increases of the reactions of the drug-administered group versus those of the vehicle-administered group, and comparison between the drug-administered groups and the vehicle-administered group was carried out using Dunnett's t-test. P<0.05 was considered significant. Results

lacrimal gland = assay: Tear fluid secretion after subcutaneous bolus administration; details: mice, 10 minutes after administration
Procedure: as §1, §2
as §2, with “Pilocarpine was dissolved” for “The compound A was dissolved”, “concentration of 0.03, 0.1, 0.3, 1, 3 or 10 mg/5 ml, or cevimeline to a concentration of 0.3, 1, 3,” for “concentration of 1, 3,”, “administration of pilocarpine or cevimeline and 10,” for “administration of compound A and 10,”
as §3, §4

salivary gland [3] = assay: Salivary fluid secretion during subcutaneous continuous administration (osmotic pump); details: mice; for Salivary fluid: AUC of secreted amount
Procedure: as §1
The compound A was dissolved in physiological saline to a concentration of 0.625, 1.25, 2.5, 5.0, 10 or 20 mg/200 μl, and filled each pump (Alzet mini-osmotic pump 2001D, 8 μl/h, 1 day; DURECT Corporation) with about 200 μl portions It means, that is, each pump releases at a rate of 0.025, 0.05, 0.1, 0.2, 0.4 or 0.8 mg compound A/h, respectively. About 5 mm of dorsal epidermis of a mouse anesthetized with diethyl ether was incised, the osmotic pump already filled with the compound A was subcutaneously implanted, and then the skin was stitched. Secreted amounts of salivary and tear fluid and sweating were periodically measured from just before the implantation of pump until 32 hours after the administration. The ornithine decarboxylase activity was measured 10 hours after the implantation.
Pilocarpine was dissolved in physiological saline to a concentration of 0.039, 0.078, 0.16 or 0.31 mg/200 μl, or cevimeline to a concentration of 0.16, 0.31, 0.63 or 1.3 mg/200 μl, and filled the osmotic pump (Alzet mini-osmotic pump 2001 D, 8 μl/h, 1 day; DURECT Corporation) with about 200 μl portions. It means, that is, each pump releases at a rate of 0.00156, 0.00312, 0.0064 or 0.0124 mg/h (pilocarpine) or 0.0064, 0.0124, 0.0252 or 0.05 mg/h (cevimeline). About 5 mm of dorsal epidermis of a mouse anesthetized with diethyl ether was incised, the osmotic pump already filled with pilocarpine or cevimeline was subcutaneously implanted, and then the skin was stitched. Secreted amounts of salivary and tear fluid and sweating were periodically measured from just before the implantation of pump until 32 hours after the administration. The ornithine decarboxylase activity was measured 10 hours after the implantation.
as §3, §4

sweat gland = assay: Sweating (number of activated sweat glands on footpad) after subcutaneous bolus administration; details: for sweating: 10 minutes after administration
Procedure: as §1, §2
as §2, with “Pilocarpine was dissolved” for “The compound A was dissolved”, “concentration of 0.03, 0.1, 0.3, 1, 3 or 10 mg/5 ml, or cevimeline to a concentration of 0.3, 1, 3,” for “concentration of 1, 3,”, “administration of pilocarpine or cevimeline and 10,” for “administration of compound A and 10,”
The footpad of right hind paw of a mouse anesthetized with diethyl ether was wiped with absorbent cotton, and then 20 μl of each of 5 mg/ml iodine-ethanol solution and 50 mg/ml starch-mineral oil suspension was applied thereto. The number of black spots on footpad was counted and used as the number of activated sweat glands. In the case of the subcutaneous bolus administration test, the number of activated sweat glands 10 minutes after the administration of compound A was measured. In the case of the subcutaneous continuous administration, area under the number of activated sweat glands-versus-time curve (AUC) was calculated.
as §4

## C=C1CC2(CCN(C)CC2)O[C@H]1C [compound A, (−)-(S)-2,8-dimethyl-3-methylene-1-oxa-8-azaspiro[4.5]decane]
[1]; s.c. bolus 10 mg/kg
  Glandular cell growth Lacrimal gland: 0.99 ± 0.24 fold increase vs. the vehicle group
[1]; s.c. bolus 30 mg/kg
  Glandular cell growth Lacrimal gland: 2.2 ± 0.43 fold increase vs. the vehicle group
[1]; s.c. bolus 100 mg/kg
  Glandular cell growth Lacrimal gland: 2.3 ± 0.07 fold increase vs. the vehicle group
Salivary gland [2]; s.c. bolus 1 mg/kg, 10 minutes after administration
  Salivary fluid: 1.5 ± 0.10 fold increase vs. the vehicle group
Salivary gland [2]; s.c. bolus 3 mg/kg, 10 minutes after administration
  Salivary fluid: 1.8 ± 0.13 fold increase vs. the vehicle group
Salivary gland [2]; s.c. bolus 10 mg/kg, 10 minutes after administration
  Salivary fluid: 3.3 ± 1.1 fold increase vs. the vehicle group
Salivary gland [2]; s.c. bolus, 10 minutes after administration
  dose at which statistically significant acceleration of salivary fluid secretion was attained: 10 mg/kg
Salivary gland [2]; s.c. bolus, every dose
  time after administration at which secretion amount of salivary and tear fluid reached maximum: 10 min
Lacrimal gland; s.c. bolus 1 mg/kg
  Tear fluid: 1.3 ± 0.11 fold increase vs. the vehicle group
Lacrimal gland; s.c. bolus 3 mg/kg
  Tear fluid: 1.4 ± 0.15 fold increase vs. the vehicle group
Lacrimal gland; s.c. bolus 10 mg/kg
  Tear fluid: 2.2 ± 0.25 fold increase vs. the vehicle group
Lacrimal gland; s.c. bolus
  dose at which statistically significant acceleration of tear fluid secretion was attained: 10 mg/kg
Salivary gland [3]; s.c. continuous administration
  dose at which salivary fluid secretion acceleration action reached maximum: 5 mg
  time after osmotic pump implantation at which secreted amount of tear and salivary fluid became maximum: 10 h
  time after osmotic pump implantation at which secreted amount of tear and salivary fluid started to increase: 4 h
  time after which secretion acceleration action almost disappeared: 32 h
  time until which increased secretion of tear and salivary fluid continued: 26 h
Salivary gland [3]; s.c. continuous administration, cumulative quantity vs vehicle group
  dose showing statistically significant salivary fluid secretion acceleration: ≥ 2.5 mg
Salivary gland [3]; s.c. osmotic pump 0.63 mg (0.025 mg/h)
  Salivary fluid: 0.84 ± 0.11 fold increase vs. the vehicle group
Salivary gland [3]; s.c. osmotic pump 1.25 mg (0.05 mg/h)
  Salivary fluid: 1.4 ± 0.11 fold increase vs. the vehicle group
Salivary gland [3]; s.c. osmotic pump 2.5 mg (0.1 mg/h)
  Salivary fluid: 2.1 ± 0.13 fold increase vs. the vehicle group
Salivary gland [3]; s.c. osmotic pump 5 mg (0.2 mg/h)
  Salivary fluid: 2.8 ± 0.21 fold increase vs. the vehicle group
Salivary gland [3]; s.c. osmotic pump 10 mg (0.4 mg/h)
  Salivary fluid: 3.4 ± 0.35 fold increase vs. the vehicle group
Sweat gland; male, Balb/c, mouse, in vivo, 10 min
  dose at which a side effect was found: 30 mg/kg
Sweat gland; mice, s.c. bolus
  dose at which statistically significant sweating was found: 30 mg/kg
  sweating dose relative to dose accelerating secretion of salivary and tear fluid: 3 times
Sweat gland; mice, s.c. bolus 3 mg/kg
  sweating: 0.69 ± 0.19 fold increase vs. the vehicle group
Sweat gland; mice, s.c. bolus 10 mg/kg
  sweating: 1.3 ± 0.20 fold increase vs. the vehicle group
Sweat gland; mice, s.c. bolus 30 mg/kg
  sweating: 2.0 ± 0.19 fold increase vs. the vehicle group
Sweat gland; mice, s.c. bolus 100 mg/kg
  sweating: 2.2 ± 0.17 fold increase vs. the vehicle group
Sweat gland; mouse, bolus administration
  dose at which a side effect was not found: 10 mg/kg
